From ChEMBL document CHEMBL4476867, “Hydroxy formamide derivatives and their use” (2016)

How the values were obtained:
Assay type in all cases: cell-based
[1] = target: T1, Bone morphogenetic protein 1 (Homo sapiens, UniProt P13497); assay: Inhibition of C-terminal FLAG-6x-His epitope tagged and N-terminal human RAGE signal sequence tagged human BMP1 (23 to 721 amino acids) expressed in CHO-E1 cells pre-incubated for 10 mins before promyostatin peptide substrate addition and measured after 60 mins using 0.5 nM BMP1 by FRET based assay
T1 sequence (P13497 whole entry): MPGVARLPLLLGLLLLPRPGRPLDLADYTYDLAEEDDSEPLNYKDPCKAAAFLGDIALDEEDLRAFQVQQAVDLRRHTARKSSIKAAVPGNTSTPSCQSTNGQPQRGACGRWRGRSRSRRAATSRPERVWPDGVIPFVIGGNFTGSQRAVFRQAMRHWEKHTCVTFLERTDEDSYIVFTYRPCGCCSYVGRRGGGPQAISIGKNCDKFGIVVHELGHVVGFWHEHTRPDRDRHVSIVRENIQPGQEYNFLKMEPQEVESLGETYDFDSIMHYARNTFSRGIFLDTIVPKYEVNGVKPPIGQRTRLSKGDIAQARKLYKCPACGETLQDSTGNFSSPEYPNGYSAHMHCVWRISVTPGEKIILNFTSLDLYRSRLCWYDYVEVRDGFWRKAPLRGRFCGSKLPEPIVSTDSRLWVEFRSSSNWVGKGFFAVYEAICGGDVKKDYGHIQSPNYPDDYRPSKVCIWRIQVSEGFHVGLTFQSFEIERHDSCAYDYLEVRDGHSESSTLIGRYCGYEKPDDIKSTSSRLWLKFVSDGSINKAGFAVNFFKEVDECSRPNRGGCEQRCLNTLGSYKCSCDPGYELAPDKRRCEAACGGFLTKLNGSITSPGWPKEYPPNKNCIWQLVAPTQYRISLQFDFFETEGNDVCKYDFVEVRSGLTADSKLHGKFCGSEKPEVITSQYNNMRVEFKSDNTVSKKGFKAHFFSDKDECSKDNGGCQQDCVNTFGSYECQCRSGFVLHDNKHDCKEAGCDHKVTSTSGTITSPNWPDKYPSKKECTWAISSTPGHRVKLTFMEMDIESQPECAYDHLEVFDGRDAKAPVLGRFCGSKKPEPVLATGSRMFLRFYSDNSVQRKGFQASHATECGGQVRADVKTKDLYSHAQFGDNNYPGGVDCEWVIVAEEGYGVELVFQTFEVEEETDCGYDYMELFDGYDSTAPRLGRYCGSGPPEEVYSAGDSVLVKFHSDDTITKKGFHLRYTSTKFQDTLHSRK

[2] = target: T1, Bone morphogenetic protein 1; assay: Inhibition of C-terminal FLAG-6x-His epitope tagged and N-terminal human RAGE signal sequence tagged human BMP1 (23 to 721 amino acids) expressed in CHO-E1 cells pre-incubated for 10 mins before promyostatin peptide substrate addition and measured after 30 mins using 50 nM BMP1 by FRET based assay
Tolloid-like protein 1 = Tolloid-like protein 1 (Homo sapiens, UniProt O43897, I156V/N221S/V284A); assay: Inhibition of recombinant human TLL1 I156V/N221S/V284A mutant expressed in CHOE1A cells pre-incubated for 10 mins before promyostatin peptide substrate addition and measured after 60 mins by FRET based assay
Tolloid-like protein 1, sequence (O43897 148-1013 I156V/N221S/V284A limits assumed): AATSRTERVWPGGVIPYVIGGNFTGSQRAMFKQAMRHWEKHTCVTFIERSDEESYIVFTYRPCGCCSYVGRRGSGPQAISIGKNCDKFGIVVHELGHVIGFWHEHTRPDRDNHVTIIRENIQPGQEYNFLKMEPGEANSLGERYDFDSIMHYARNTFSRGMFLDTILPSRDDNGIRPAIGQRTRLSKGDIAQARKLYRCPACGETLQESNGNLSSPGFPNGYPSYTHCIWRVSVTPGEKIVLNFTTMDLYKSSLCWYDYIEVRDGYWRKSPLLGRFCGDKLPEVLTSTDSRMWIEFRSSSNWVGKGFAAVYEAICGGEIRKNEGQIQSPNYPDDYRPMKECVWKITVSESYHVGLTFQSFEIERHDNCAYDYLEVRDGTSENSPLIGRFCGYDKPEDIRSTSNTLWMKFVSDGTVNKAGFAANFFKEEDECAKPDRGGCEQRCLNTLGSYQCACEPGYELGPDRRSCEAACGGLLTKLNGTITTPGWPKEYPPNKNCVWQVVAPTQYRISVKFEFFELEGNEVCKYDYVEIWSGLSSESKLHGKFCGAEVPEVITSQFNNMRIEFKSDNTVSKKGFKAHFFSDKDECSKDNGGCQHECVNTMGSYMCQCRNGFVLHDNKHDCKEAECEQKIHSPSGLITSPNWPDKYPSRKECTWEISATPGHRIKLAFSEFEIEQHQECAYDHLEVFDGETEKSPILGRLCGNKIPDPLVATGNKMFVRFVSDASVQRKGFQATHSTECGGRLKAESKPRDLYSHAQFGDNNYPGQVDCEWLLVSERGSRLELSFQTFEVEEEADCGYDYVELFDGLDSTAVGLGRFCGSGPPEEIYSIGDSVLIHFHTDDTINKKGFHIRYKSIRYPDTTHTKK

Tolloid-like protein 2 = target: T2, Tolloid-like protein 2 (Homo sapiens, UniProt Q9Y6L7); assay: Inhibition of C-terminal Avi-6x-His epitope tagged and N-terminal human RAGE signal sequence tagged recombinant human TLL2 (26 to 1015 amino acids) expressed in CHOE1A cells incubated for 60 mins with promyostatin peptide substrate by FRET based assay
T2 sequence (Q9Y6L7 whole entry): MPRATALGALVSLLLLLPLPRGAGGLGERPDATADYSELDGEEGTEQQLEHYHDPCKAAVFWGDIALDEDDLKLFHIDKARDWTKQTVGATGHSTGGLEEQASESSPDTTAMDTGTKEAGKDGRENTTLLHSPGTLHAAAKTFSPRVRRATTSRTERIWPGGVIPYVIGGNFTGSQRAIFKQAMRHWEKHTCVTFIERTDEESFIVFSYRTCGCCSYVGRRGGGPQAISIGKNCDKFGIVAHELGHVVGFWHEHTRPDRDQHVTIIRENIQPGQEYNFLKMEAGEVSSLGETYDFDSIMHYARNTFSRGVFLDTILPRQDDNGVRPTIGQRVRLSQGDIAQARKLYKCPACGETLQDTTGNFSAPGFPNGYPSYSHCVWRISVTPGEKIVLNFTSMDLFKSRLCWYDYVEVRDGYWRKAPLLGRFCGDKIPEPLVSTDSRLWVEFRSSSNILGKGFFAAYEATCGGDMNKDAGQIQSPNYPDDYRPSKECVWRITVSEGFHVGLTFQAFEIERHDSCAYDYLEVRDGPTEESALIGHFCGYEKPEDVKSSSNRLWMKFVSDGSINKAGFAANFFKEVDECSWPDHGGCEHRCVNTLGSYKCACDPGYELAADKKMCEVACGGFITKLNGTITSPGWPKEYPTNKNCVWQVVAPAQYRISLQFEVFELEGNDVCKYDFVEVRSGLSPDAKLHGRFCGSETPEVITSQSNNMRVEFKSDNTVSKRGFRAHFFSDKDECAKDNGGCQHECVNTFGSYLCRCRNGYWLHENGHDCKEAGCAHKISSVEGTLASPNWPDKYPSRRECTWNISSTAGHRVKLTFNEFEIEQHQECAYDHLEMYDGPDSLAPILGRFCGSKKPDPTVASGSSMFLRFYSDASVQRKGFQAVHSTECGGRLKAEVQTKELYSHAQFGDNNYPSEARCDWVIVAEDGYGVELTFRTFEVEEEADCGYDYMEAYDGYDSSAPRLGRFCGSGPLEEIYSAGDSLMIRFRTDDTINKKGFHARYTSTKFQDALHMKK

SMILES	IC50 [1] [µM]	IC50 [2] [µM]	IC50 (Tolloid-like protein 1) [µM]	IC50 (Tolloid-like protein 2) [µM]
CCCCC[C@H](CN(O)C=O)C(=O)NCNC(=O)c1ccc(-c2cccc(C#N)c2)o1	< 0.126	< 0.2	< 0.398	< 0.794
CCCCC[C@H](CN(O)C=O)C(=O)NCNC(=O)c1ccc(-c2ccc(C(=O)OC)cc2)o1	< 0.126	< 0.2	< 0.398	< 0.794
CCOc1cc(C(=O)O)cc(-c2ccc(C(=O)NCNC(=O)CCN(O)C=O)o2)c1	< 0.126	< 0.2	< 0.398	–
CCCCC[C@H](CN(O)C=O)C(=O)NCNC(=O)c1ccc(-c2cncc(OC)c2)o1	< 0.126	< 0.2	< 0.398	< 0.794
CCCCC[C@H](CN(O)C=O)C(=O)NCNC(=O)c1ccc(-c2cccc(OCCN3CCCC3)c2)o1	< 0.126	< 0.2	< 0.398	< 0.794
CCCCC[C@H](CN(O)C=O)C(=O)NCNC(=O)c1ccc(-c2ccccc2O)o1	< 0.126	< 0.2	< 0.398	< 0.794
CCCCC[C@@H](C(=O)NCNC(=O)c1ccc(-c2cccc(/C(N)=N/O)c2)o1)[C@@H](CC)N(O)C=O	< 0.126	< 0.2	< 0.398	< 0.794
CCCCC[C@H](CN(O)C=O)C(=O)NCNC(=O)c1ccc(-c2ccccc2C(=O)O)o1	< 0.126	< 0.2	< 0.398	< 0.794
O=CN(O)C[C@@H](CC1CCCC1)C(=O)NCNC(=O)c1ccc(-c2ccccc2)o1	< 0.126	< 0.2	< 0.398	< 0.794
CCCCC[C@@H](C(=O)NCNC(=O)c1ccc(-c2ccccc2)o1)[C@@H](CO)N(O)C=O	< 0.126	< 0.2	< 0.398	< 0.794
O=CN(O)C[C@@H](CCCc1ccccc1)C(=O)NCNC(=O)c1ccc(-c2ccccc2)o1	< 0.126	< 0.2	< 0.398	< 0.794
CCCCC[C@H](CN(O)C=O)C(=O)NCNC(=O)c1ccc(-c2cccc(C(=O)NC)c2)o1	< 0.126	< 0.2	< 0.398	< 0.794
CCCCC[C@H](CN(O)C=O)C(=O)NCNC(=O)c1ccc(-c2ccc(C)c(C(=O)O)c2)o1	< 0.126	< 0.2	< 0.398	< 0.794
CCCCC[C@H](CN(O)C=O)C(=O)NCNC(=O)c1ccc(-c2ccc3c(c2)S(=O)(=O)NC3)o1	< 0.126	< 0.2	< 0.398	< 0.794
CCCCC[C@H](CN(O)C=O)C(=O)NCNC(=O)c1ccc(-c2cccc(OC)n2)o1	< 0.126	< 0.2	< 0.398	< 0.794
CCCCC[C@@H](C(=O)NCNC(=O)c1ccc(-c2ccc(OC)c(C(=O)O)c2)o1)[C@@H](CC)N(O)C=O	< 0.126	< 0.2	< 0.398	< 0.794
CCCCC[C@H](CN(O)C=O)C(=O)NCNC(=O)c1ccc(-c2cccc(P(=O)(OC)OC)c2)o1	< 0.126	< 0.2	< 0.398	< 0.794
